# Laboratory results: PubChem BioAssay (NCI)
#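 The compound was tested at five concentrations on cells cultured in 96-well plates, with a 48-hour exposure period. GI50 is the concentration that inhibits growth by half. TGI marks complete inhibition of growth.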
# Key:
# Assay in all cases: growth of human tumour cells (NCI), 48 h
# 786-0 renal = system: 786-0 renal
# A498 renal = system: A498 renal
# A549 NSCLC = system: A549 NSCLC
# ACHN renal = system: ACHN renal
# BT-549 breast = system: BT-549 breast
# CAKI-1 renal = system: CAKI-1 renal
# CCRF-CEM leukemia = system: CCRF-CEM leukemia
# COLO 205 colon = system: COLO 205 colon
# DU-145 prostate = system: DU-145 prostate
# EKVX NSCLC = system: EKVX NSCLC
# HCC-2998 colon = system: HCC-2998 colon
# HCT-116 colon = system: HCT-116 colon
# HCT-15 colon = system: HCT-15 colon
# HL-60(TB) leukemia = system: HL-60(TB) leukemia
# HOP-62 NSCLC = system: HOP-62 NSCLC
# HOP-92 NSCLC = system: HOP-92 NSCLC
# HS 578T breast = system: HS 578T breast
# HT29 colon = system: HT29 colon
# IGROV1 ovarian = system: IGROV1 ovarian
# K-562 leukemia = system: K-562 leukemia
# KM12 colon = system: KM12 colon
# LOX IMVI melanoma = system: LOX IMVI melanoma
# M14 melanoma = system: M14 melanoma
# MALME-3M melanoma = system: MALME-3M melanoma
# MCF7 breast = system: MCF7 breast
# MDA-MB-231 breast = system: MDA-MB-231 breast
# MDA-MB-435 = system: MDA-MB-435
# MOLT-4 leukemia = system: MOLT-4 leukemia
# NCI-H226 lung = system: NCI-H226 lung
# NCI-H460 lung = system: NCI-H460 lung
# NCI-H522 lung = system: NCI-H522 lung
# NCI/ADR-RES ovarian = system: NCI/ADR-RES ovarian
# OVCAR-3 ovarian = system: OVCAR-3 ovarian
# OVCAR-4 ovarian = system: OVCAR-4 ovarian
# OVCAR-5 ovarian = system: OVCAR-5 ovarian
# OVCAR-8 ovarian = system: OVCAR-8 ovarian
# PC-3 prostate = system: PC-3 prostate
# RPMI-8226 leukemia = system: RPMI-8226 leukemia
# RXF 393 renal = system: RXF 393 renal
# SF-268 CNS = system: SF-268 CNS
# SF-295 CNS = system: SF-295 CNS
# SF-539 CNS = system: SF-539 CNS
# SK-MEL-2 melanoma = system: SK-MEL-2 melanoma
# SK-MEL-28 melanoma = system: SK-MEL-28 melanoma
# SK-MEL-5 melanoma = system: SK-MEL-5 melanoma
# SK-OV-3 ovarian = system: SK-OV-3 ovarian
# SN12C renal = system: SN12C renal
# SNB-19 CNS = system: SNB-19 CNS
# SNB-75 CNS = system: SNB-75 CNS
# SR leukemia = system: SR leukemia
# SW-620 colon = system: SW-620 colon
# T-47D breast = system: T-47D breast
# TK-10 renal = system: TK-10 renal
# U251 CNS = system: U251 CNS
# UACC-257 melanoma = system: UACC-257 melanoma
# UACC-62 melanoma = system: UACC-62 melanoma
# UO-31 renal = system: UO-31 renal
structure (smiles),measurement,setting,value
CS(=O)(=O)c1nccc(-c2c(-c3ccc(F)c(OCc4ccc(F)cc4)c3)nc3sccn23)n1,GI50,786-0 renal,20.9 µM
same,TGI,786-0 renal,53.3 µM
same,GI50,A498 renal,13 µM
same,TGI,A498 renal,26 µM
same,GI50,A549 NSCLC,17.7 µM
same,TGI,A549 NSCLC,34.6 µM
same,GI50,ACHN renal,16.6 µM
same,TGI,ACHN renal,30.9 µM
same,GI50,BT-549 breast,21.2 µM
same,TGI,BT-549 breast,63.6 µM
same,GI50,CAKI-1 renal,14.8 µM
same,TGI,CAKI-1 renal,28 µM
same,GI50,CCRF-CEM leukemia,3.38 µM
same,TGI,CCRF-CEM leukemia,13.1 µM
same,GI50,COLO 205 colon,17.6 µM
same,TGI,COLO 205 colon,34 µM
same,GI50,DU-145 prostate,3.33 µM
same,TGI,DU-145 prostate,11.1 µM
same,GI50,EKVX NSCLC,15.6 µM
same,TGI,EKVX NSCLC,29.1 µM
same,GI50,HCC-2998 colon,14.2 µM
same,TGI,HCC-2998 colon,27.9 µM
same,GI50,HCT-116 colon,14.4 µM
same,TGI,HCT-116 colon,27.5 µM
same,GI50,HCT-15 colon,13.8 µM
same,TGI,HCT-15 colon,31.4 µM
same,GI50,HL-60(TB) leukemia,3.89 µM
same,TGI,HL-60(TB) leukemia,15.3 µM
same,GI50,HOP-62 NSCLC,16.2 µM
same,TGI,HOP-62 NSCLC,30.9 µM
same,GI50,HOP-92 NSCLC,5.43 µM
same,TGI,HOP-92 NSCLC,21.5 µM
same,GI50,HS 578T breast,21.2 µM
same,TGI,HS 578T breast,72.2 µM
same,GI50,HT29 colon,21.6 µM
same,TGI,HT29 colon,61.6 µM
same,GI50,IGROV1 ovarian,15.5 µM
same,TGI,IGROV1 ovarian,31.8 µM
same,GI50,K-562 leukemia,21 µM
same,TGI,K-562 leukemia,72.8 µM
same,GI50,KM12 colon,17.6 µM
same,TGI,KM12 colon,33.8 µM
same,GI50,LOX IMVI melanoma,10.2 µM
same,TGI,LOX IMVI melanoma,24.5 µM
same,GI50,M14 melanoma,18.5 µM
same,TGI,M14 melanoma,36.7 µM
same,GI50,MALME-3M melanoma,24.5 µM
same,TGI,MALME-3M melanoma,71 µM
same,GI50,MCF7 breast,5.69 µM
same,TGI,MCF7 breast,22.2 µM
same,GI50,MDA-MB-231 breast,18.1 µM
same,TGI,MDA-MB-231 breast,39.4 µM
same,GI50,MDA-MB-435,16.5 µM
same,TGI,MDA-MB-435,31 µM
same,GI50,MOLT-4 leukemia,18.2 µM
same,TGI,MOLT-4 leukemia,44.4 µM
same,GI50,NCI-H226 lung,28.3 µM
same,TGI,NCI-H226 lung,> 100 µM
same,GI50,NCI-H460 lung,13.5 µM
same,TGI,NCI-H460 lung,27.4 µM
same,GI50,NCI-H522 lung,13.4 µM
same,TGI,NCI-H522 lung,30.3 µM
same,GI50,NCI/ADR-RES ovarian,18 µM
same,TGI,NCI/ADR-RES ovarian,38.7 µM
same,GI50,OVCAR-3 ovarian,13.1 µM
same,TGI,OVCAR-3 ovarian,25.8 µM
same,GI50,OVCAR-4 ovarian,17.8 µM
same,TGI,OVCAR-4 ovarian,44.6 µM
same,GI50,OVCAR-5 ovarian,67.6 µM
same,TGI,OVCAR-5 ovarian,> 100 µM
same,GI50,OVCAR-8 ovarian,15 µM
same,TGI,OVCAR-8 ovarian,28.3 µM
same,GI50,PC-3 prostate,17.2 µM
same,TGI,PC-3 prostate,34.9 µM
same,GI50,RPMI-8226 leukemia,20 µM
same,TGI,RPMI-8226 leukemia,54.7 µM
same,GI50,RXF 393 renal,14.3 µM
same,TGI,RXF 393 renal,29.2 µM
same,GI50,SF-268 CNS,15.9 µM
same,TGI,SF-268 CNS,32.8 µM
same,GI50,SF-295 CNS,23 µM
same,TGI,SF-295 CNS,52 µM
same,GI50,SF-539 CNS,17.8 µM
same,TGI,SF-539 CNS,36.7 µM
same,GI50,SK-MEL-2 melanoma,15.2 µM
same,TGI,SK-MEL-2 melanoma,29.6 µM
same,GI50,SK-MEL-28 melanoma,16.1 µM
same,TGI,SK-MEL-28 melanoma,29.8 µM
same,GI50,SK-MEL-5 melanoma,17.4 µM
same,TGI,SK-MEL-5 melanoma,33.1 µM
same,GI50,SK-OV-3 ovarian,93.6 µM
same,TGI,SK-OV-3 ovarian,> 100 µM
same,GI50,SN12C renal,23.7 µM
same,TGI,SN12C renal,> 100 µM
same,GI50,SNB-19 CNS,16 µM
same,TGI,SNB-19 CNS,30 µM
same,GI50,SNB-75 CNS,16.4 µM
same,TGI,SNB-75 CNS,> 100 µM
same,GI50,SR leukemia,13.1 µM
same,TGI,SR leukemia,60.8 µM
same,GI50,SW-620 colon,16.1 µM
same,TGI,SW-620 colon,31.8 µM
same,GI50,T-47D breast,11.1 µM
same,TGI,T-47D breast,26.2 µM
same,GI50,TK-10 renal,22.1 µM
same,TGI,TK-10 renal,66.3 µM
same,GI50,U251 CNS,17.8 µM
same,TGI,U251 CNS,37.9 µM
same,GI50,UACC-257 melanoma,14.5 µM
same,TGI,UACC-257 melanoma,28.4 µM
same,GI50,UACC-62 melanoma,16.3 µM
same,TGI,UACC-62 melanoma,34.2 µM
same,GI50,UO-31 renal,15.1 µM
same,TGI,UO-31 renal,36.3 µM
